Structures can show the parent of a compound that is named as a salt.
Test system: HepaRG
Experiment: LDH release cytotoxicity, % of total lysis control; higher = more cytotoxic
Conditions: 48 h
How it was run: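 Eight-point half-log series of test chemicals, the highest at 100 µM, were given in duplicate for 48 h to single-lot HepaRG cells on collagen I-coated 96-well plates in serum-free induction medium with 0.5% DMSO. A Tecan Safire read resorufin fluorescence from CytoTox-ONE as a measure of LDH in 50 µL spent medium, with 0.1% Triton X in total lysis wells. Percent cytotoxicity was normalized to on-plate vehicle and total lysis controls and averaged over the duplicates.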

Cc1cccc(Nc2cc(Cl)nc(SCC(=O)O)n2)c1C [Pirinixic acid]
Conditions | LDH release cytotoxicity [%]
0.03162 µM | -1.32
0.1 µM | -1.59
0.3162278 µM | -0.978
1 µM | -0.873
3.16228 µM | -1.38
10 µM | -1.43
31.6228 µM | 0.274
100 µM | 2.17

O=S(=O)(O)C(F)(F)C(F)(F)C(F)(F)C(F)(F)F [Potassium perfluorobutanesulfonate]
Conditions | LDH release cytotoxicity [%]
0.0332039 µM | -0.897
0.105 µM | -1.25
0.332039 µM | -2.33
1.05 µM | -2.02
3.32039 µM | -1.34
10.5 µM | -1.05
33.2039 µM | -1.53
105 µM | 0.458

O=S(=O)(O)C(F)(F)C(F)(F)C(F)(F)C(F)(F)C(F)(F)C(F)(F)F [Potassium perfluorohexanesulfonate]
Conditions | LDH release cytotoxicity [%]
0.03162 µM | -0.914
0.1 µM | -1.15
0.3162278 µM | -1.06
1 µM | -1.98
3.16228 µM | -1.95
10 µM | -0.831
31.6228 µM | -1.52
100 µM | -0.438

O=S(=O)(O)C(F)(F)C(F)(F)C(F)(F)C(F)(F)C(F)(F)C(F)(F)C(F)(F)C(F)(F)F [Potassium perfluorooctanesulfonate]
Conditions | LDH release cytotoxicity [%]
0.03036 µM | -2.82
0.096 µM | -1.72
0.303579 µM | -2.71
0.96 µM | -2.314
3.03579 µM | -2.44
9.6 µM | -1.36
30.3579 µM | -1.03
96 µM | 27.2

C#CCC1=C(C)C(OC(=O)C2C(C=C(C)C)C2(C)C)CC1=O (stereo not given) [Prallethrin]
Conditions | LDH release cytotoxicity [%]
0.0314647 µM | -1.54
0.0995 µM | -0.874
0.3146466 µM | -2.55
0.995 µM | -2.33
3.14647 µM | -1.9
9.95 µM | -1.44
31.4647 µM | -2.39
99.5 µM | 3.9

CCC(C)C(=O)OC1CC(O)C=C2C=CC(C)C(CCC(O)CC(O)CC(=O)O)C21 (stereo not given) [Pravastatin sodium]
Conditions | LDH release cytotoxicity [%]
0.03162 µM | -0.512
0.1 µM | -1.91
0.3162278 µM | -0.491
1 µM | -1.07
3.16228 µM | -0.742
10 µM | 0.11
31.6228 µM | 0.155
100 µM | 3.76

CC12C=CC(=O)C=C1CCC1C2C(=O)CC2(C)C1CCC2(O)C(=O)CO (stereo not given) [Prednisone]
Conditions | LDH release cytotoxicity [%]
0.03162 µM | -1.86
0.1 µM | -1.83
0.3162278 µM | -2.31
1 µM | -1.54
3.16228 µM | -1.77
10 µM | -1.84
31.6228 µM | -1.61
100 µM | -0.167

CCCN(CCOc1c(Cl)cc(Cl)cc1Cl)C(=O)n1ccnc1 [Prochloraz]
Conditions | LDH release cytotoxicity [%]
0.031623 µM | 0.136
0.1 µM | -2.541
0.316228 µM | -3.11
1 µM | -2.56
3.16228 µM | -0.716
10 µM | -0.855
31.6228 µM | 13.7
100 µM | 64.6

CC12CC1(C)C(=O)N(c1cc(Cl)cc(Cl)c1)C2=O (stereo not given) [Procymidone]
Conditions | LDH release cytotoxicity [%]
0.03162 µM | -1.37
0.1 µM | -1.85
0.3162278 µM | -2.08
1 µM | -2.56
3.16228 µM | -2.762
10 µM | -1.32
31.6228 µM | -2.43
100 µM | -1.16

CCCN(CCC)c1c([N+](=O)[O-])cc(C(F)(F)F)c(N)c1[N+](=O)[O-] [Prodiamine]
Conditions | LDH release cytotoxicity [%]
0.03162 µM | -2.33
0.1 µM | -1.51
0.3162278 µM | -2.72
1 µM | -3.4
3.16228 µM | 0.15
10 µM | -1.16
31.6228 µM | -0.459
100 µM | 8.35

CCCSP(=O)(OCC)Oc1ccc(Br)cc1Cl (stereo not given) [Profenofos]
Conditions | LDH release cytotoxicity [%]
0.01581 µM | -6.81
0.05 µM | -6.73
0.1581139 µM | -6.46
0.5 µM | -6.51
1.5811388 µM | -6.7
5 µM | -7.47
15.8114 µM | -7.49
50 µM | -6.78

CC(=O)C1CCC2C3CCC4=CC(=O)CCC4(C)C3CCC12C (stereo not given) [Progesterone]
Conditions | LDH release cytotoxicity [%]
0.03162 µM | 0.112
0.1 µM | -0.0962
0.3162278 µM | -0.597
1 µM | -0.509
3.16228 µM | -1.13
10 µM | -2
31.6228 µM | 12.6
100 µM | 55.9

COc1nc(NC(C)C)nc(NC(C)C)n1 [Prometon]
Conditions | LDH release cytotoxicity [%]
0.03162 µM | -0.0909
0.1 µM | -0.994
0.3162278 µM | -1.1
1 µM | -1.18
3.16228 µM | -1.26
10 µM | -1.06
31.6228 µM | -0.722
100 µM | -0.643

CSc1nc(NC(C)C)nc(NC(C)C)n1 [Prometryn]
Conditions | LDH release cytotoxicity [%]
0.031623 µM | 1.02
0.1 µM | -3.89
0.316228 µM | -3.27
1 µM | -2.93
3.16228 µM | -2.42
10 µM | -2.73
31.6228 µM | -3.26
100 µM | -1.44

CCCOC(=O)NCCCN(C)C [Propamocarb hydrochloride]
Conditions | LDH release cytotoxicity [%]
0.03162 µM | 0.518
0.1 µM | -0.315
0.3162278 µM | -0.112
1 µM | -0.746
3.16228 µM | 0
10 µM | 0.683
31.6228 µM | 0.664
100 µM | 0.411

CCC(=O)Nc1ccc(Cl)c(Cl)c1 [Propanil]
Conditions | LDH release cytotoxicity [%]
0.03162 µM | -0.963
0.1 µM | -0.318
0.3162278 µM | -0.815
1 µM | -1.73
3.16228 µM | -0.844
10 µM | 0.163
31.6228 µM | 0.666
100 µM | 4.33

C#CCOS(=O)OC1CCCCC1Oc1ccc(C(C)(C)C)cc1 (stereo not given) [Propargite]
Conditions | LDH release cytotoxicity [%]
0.03162 µM | -0.16
0.1 µM | -0.456
0.3162278 µM | -0.537
1 µM | 0.246
3.16228 µM | -0.49
10 µM | -0.575
31.6228 µM | 62.8
100 µM | 83.83

CC(C)Nc1nc(Cl)nc(NC(C)C)n1 [Propazine]
Conditions | LDH release cytotoxicity [%]
0.03162 µM | -0.771
0.1 µM | -0.918
0.3162278 µM | -0.266
1 µM | -0.0277
3.16228 µM | -0.787
10 µM | -0.398
31.6228 µM | -0.397
100 µM | -0.828

CCNP(=S)(OC)OC(C)=CC(=O)OC(C)C (stereo not given) [Propetamphos]
Conditions | LDH release cytotoxicity [%]
0.03162 µM | 0.305
0.1 µM | -0.308
0.3162278 µM | -1.36
1 µM | -0.42
3.16228 µM | -0.261
10 µM | 0.0856
31.6228 µM | -1.69
100 µM | 2.91

CCCC1COC(Cn2cncn2)(c2ccc(Cl)cc2Cl)O1 (stereo not given) [Propiconazole]
Conditions | LDH release cytotoxicity [%]
0.03162 µM | -1.15
0.1 µM | -1.4
0.3162278 µM | -1.43
1 µM | -0.956
3.16228 µM | -0.902
10 µM | -0.927
31.6228 µM | 12.7
100 µM | 26.8

CNC(=O)Oc1ccccc1OC(C)C [Propoxur]
Conditions | LDH release cytotoxicity [%]
0.03162 µM | -0.314
0.1 µM | -0.642
0.3162278 µM | 0.0787
1 µM | -0.886
3.16228 µM | 0.431
10 µM | -0.355
31.6228 µM | -0.0411
100 µM | 2.29

CCCOc1nn(C(=O)NS(=O)(=O)c2ccccc2C(=O)OC)c(=O)n1C [Propoxycarbazone-sodium]
Conditions | LDH release cytotoxicity [%]
0.03162 µM | 0.284
0.1 µM | 0.427
0.3162278 µM | -0.758
1 µM | -0.962
3.16228 µM | -0.435
10 µM | -0.39
31.6228 µM | -0.185
100 µM | 0.864

CCCOC(=O)c1cc(O)c(O)c(O)c1 [Propyl gallate]
Conditions | LDH release cytotoxicity [%]
0.031623 µM | 0.488
0.1 µM | -3.35
0.316228 µM | -3.75
1 µM | -4.27
3.16228 µM | -3.65
10 µM | -3.8
31.6228 µM | -4.52
100 µM | -3.34

CCCc1ccccc1 [Propylbenzene]
Conditions | LDH release cytotoxicity [%]
0.03162 µM | 0.0897
0.1 µM | 0.202
0.3162278 µM | -0.202
1 µM | -0.857
3.16228 µM | 0.305
10 µM | -0.0719
31.6228 µM | 1.09
100 µM | 0.766

CCCOC(=O)c1ccc(O)cc1 [Propylparaben]
Conditions | LDH release cytotoxicity [%]
0.03162 µM | -0.197
0.1 µM | -0.55
0.3162278 µM | -0.664
1 µM | -0.711
3.16228 µM | -0.982
10 µM | -0.514
31.6228 µM | -0.541
100 µM | 0.018

C#CC(C)(C)NC(=O)c1cc(Cl)cc(Cl)c1 [Propyzamide]
Conditions | LDH release cytotoxicity [%]
0.03162 µM | -1.48
0.1 µM | -0.106
0.3162278 µM | -1.18
1 µM | -0.534
3.16228 µM | -1.13
10 µM | -0.249
31.6228 µM | -0.378
100 µM | 1.49

CC1CN(N=Cc2cccnc2)C(=O)N=N1 (stereo not given) [Pymetrozine]
Conditions | LDH release cytotoxicity [%]
0.03162 µM | 4.48
0.1 µM | 4.64
0.3162278 µM | 4.33
1 µM | 3.28
3.16228 µM | 5.3
10 µM | 4.29
31.6228 µM | 6.57
100 µM | 9.47

COC(=O)N(OC)c1ccccc1COc1ccn(-c2ccc(Cl)cc2)n1 [Pyraclostrobin]
Conditions | LDH release cytotoxicity [%]
0.03162 µM | -1.44
0.1 µM | -1.43
0.3162278 µM | -1.17
1 µM | -2.24
3.16228 µM | -1.81
10 µM | -0.283
31.6228 µM | 6.12
100 µM | 56.9

CCOC(=O)COc1cc(-c2nn(C)c(OC(F)F)c2Cl)c(F)cc1Cl [Pyraflufen-ethyl]
Conditions | LDH release cytotoxicity [%]
0.03162 µM | 0.0981
0.1 µM | -2.14
0.3162278 µM | -0.894
1 µM | -0.96
3.16228 µM | -1.01
10 µM | -0.751
31.6228 µM | 0.45
100 µM | 1.13

c1cc2ccc3cccc4ccc(c1)c2c34 [Pyrene]
Conditions | LDH release cytotoxicity [%]
0.03162 µM | 0.277
0.1 µM | -1.34
0.3162278 µM | -1.54
1 µM | -0.813
3.16228 µM | -0.783
10 µM | -0.0329
31.6228 µM | -0.764
100 µM | -0.178

From the supplement of paper PMC7840683
